Starred links: 1 amine or outer side, 2 acyl side, 3 side chain; linkers in the order of their positions; H or OH if unused. Positions of bridges follow the written chain, without caps; N, C: chain ends. Residues, ends and D or L forms follow the SMILES beside them. CO = O=C([*:1])[*:2] Where only a bound is given, the exact number is not on record here.

For orientation: IC50 means the point on the concentration scale where inhibition reaches its midpoint. Read a high IC50 as a need for much substance.

The experiment has as its target T1, IL17-RE-IL-17C (Homo sapiens, UniProt Q8NFR9+Q9P0M4).
T1 sequence (Q9P0M4 whole entry): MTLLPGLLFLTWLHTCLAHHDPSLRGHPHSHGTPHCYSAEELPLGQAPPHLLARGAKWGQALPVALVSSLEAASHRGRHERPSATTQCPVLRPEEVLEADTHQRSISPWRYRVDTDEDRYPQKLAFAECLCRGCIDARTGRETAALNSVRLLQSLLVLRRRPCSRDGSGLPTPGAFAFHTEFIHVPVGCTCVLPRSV
T1 sequence (Q8NFR9 whole entry): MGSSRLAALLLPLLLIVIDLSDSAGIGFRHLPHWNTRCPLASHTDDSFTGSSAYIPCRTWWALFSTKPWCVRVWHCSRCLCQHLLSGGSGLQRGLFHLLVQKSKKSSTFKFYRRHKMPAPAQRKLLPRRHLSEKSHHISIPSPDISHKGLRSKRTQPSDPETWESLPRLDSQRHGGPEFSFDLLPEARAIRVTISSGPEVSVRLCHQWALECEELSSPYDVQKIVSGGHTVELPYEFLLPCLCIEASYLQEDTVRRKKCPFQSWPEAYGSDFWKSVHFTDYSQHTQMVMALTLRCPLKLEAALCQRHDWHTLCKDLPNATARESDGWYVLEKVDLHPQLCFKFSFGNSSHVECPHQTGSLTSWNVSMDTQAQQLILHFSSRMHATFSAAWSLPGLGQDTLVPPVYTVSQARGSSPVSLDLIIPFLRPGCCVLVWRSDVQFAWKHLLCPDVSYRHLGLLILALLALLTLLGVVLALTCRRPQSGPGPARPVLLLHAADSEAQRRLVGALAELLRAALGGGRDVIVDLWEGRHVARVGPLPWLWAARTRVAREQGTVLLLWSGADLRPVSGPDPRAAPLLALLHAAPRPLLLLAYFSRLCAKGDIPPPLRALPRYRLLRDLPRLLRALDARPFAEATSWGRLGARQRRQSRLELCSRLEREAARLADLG
Briefly: Inhibition of IL-17C/IL-17RE interaction (unknown origin) incubated for 1.5 hrs by ELISA method. The class given is protein-complex assay. In general terms: An ELISA detects its analyte on a solid surface through an enzyme-linked reagent.
Molecule `CC(C)C[C@@H]1NC(=O)[C@H](CO)NC(=O)CNC(=O)[C@H](Cc2ccc(O)cc2)NC(=O)[C@H](CC(C)C)NC(=O)[C@H](CO)NC(=O)[C@H](C(C)C)NC(=O)[C@H](Cc2ccc(O)cc2)NC(=O)[C@H](Cc2ccc(O)cc2)NC(=O)[C@H](CC(C)C)NC(=O)[C@H](Cc2c[nH]cn2)NC(=O)[C@H](Cc2ccc(O)cc2)NC(=O)CSC[C@@H](C(=O)NCC(N)=O)NC(=O)CNC1=O` ({CH2CO}-YHLYYVSLYGSLGCG-NH2; thioether N-14) came in with an IC50 of 12 nM.
Under `CC[C@H](C)[C@@H]1NC(=O)[C@H](CCCNC(=N)N)NC(=O)[C@H](Cc2ccc(O)cc2)NC(=O)[C@H](Cc2ccc(O)cc2)NC(=O)C(C)NC(=O)[C@H](Cc2c[nH]cn2)NC(=O)[C@H](Cc2ccc(O)cc2)NC(=O)CSC[C@@H](C(=O)NCC(N)=O)NC(=O)CNC(=O)[C@H](CC(C)C)NC(=O)[C@H](CCC(=O)O)NC(=O)CNC(=O)[C@H](Cc2ccc(O)cc2)NC(=O)[C@H](CC(C)C)NC1=O` (single isomer, unassigned) stands 529 nM; under `CC(C)C[C@@H]1NC(=O)[C@H](CO)NC(=O)[C@H](Cc2ccc(O)cc2)NC(=O)[C@H](Cc2ccc(O)cc2)NC(=O)[C@H](Cc2ccc(O)cc2)NC(=O)[C@H](C(C)C)NC(=O)[C@H](Cc2c[nH]cn2)NC(=O)[C@H](Cc2ccc(O)cc2)NC(=O)CSC[C@@H](C(=O)NCC(N)=O)NC(=O)CNC(=O)[C@H](CC(C)C)NC(=O)[C@@H]2CCCN2C(=O)CNC(=O)[C@H](Cc2ccc(O)cc2)NC1=O` ({CH2CO}-YHVYYYSLYGPLGCG-NH2; thioether N-14), 9 nM.
In turn, `CC[C@H](C)[C@@H]1NC(=O)[C@H](CCCNC(=N)N)NC(=O)[C@H](Cc2ccc(O)cc2)NC(=O)[C@H](Cc2ccc(O)cc2)NC(=O)[C@H](Cc2c[nH]cn2)NC(=O)[C@H](Cc2c[nH]cn2)NC(=O)[C@H](Cc2ccc(O)cc2)NC(=O)CSC[C@@H](C(=O)NCC(N)=O)NC(=O)[C@H](C)NC(=O)[C@H](CC(C)C)NC(=O)[C@H](CCC(=O)O)NC(=O)CNC(=O)[C@H](Cc2ccc(O)cc2)NC(=O)[C@H](CC(C)C)NC1=O` ({CH2CO}-YHHYYRILYGELACG-NH2; thioether N-14) gave an IC50 of 865 nM.
Regarding `CC(C)C[C@@H]1NC(=O)[C@H](C)NC(=O)[C@H](CCCNC(=N)N)NC(=O)[C@H](Cc2ccc(O)cc2)NC(=O)[C@H](Cc2ccc(O)cc2)NC(=O)[C@H](Cc2c[nH]cn2)NC(=O)[C@H](Cc2c[nH]cn2)NC(=O)[C@H](Cc2ccc(O)cc2)NC(=O)SC[C@@H](C(=O)NCC(N)=O)NC(=O)CNC(=O)[C@H](CC(C)C)NC(=O)[C@H](CCC(=O)O)NC(=O)CNC(=O)[C@H](Cc2ccc(O)cc2)NC1=O` (YHHYYRALYGELGCG-NH2; linker N-14 via CO), the IC50 stood at 254 nM.
`CC[C@H](C)[C@@H]1NC(=O)[C@H](CCCNC(=N)N)NC(=O)[C@H](Cc2ccc(O)cc2)NC(=O)[C@H](Cc2ccc(O)cc2)NC(=O)[C@H](Cc2cnc[nH]2)NC(=O)[C@H](Cc2cnc[nH]2)NC(=O)[C@H](Cc2ccc(O)cc2)NC(=O)CSC[C@@H](C(=O)NCC(N)=O)NC(=O)CNC(=O)[C@@H]2CCCN2C(=O)[C@H](CCC(=O)O)NC(=O)CNC(=O)[C@H](Cc2ccc(O)cc2)NC(=O)[C@H](CC(C)C)NC1=O` ({CH2CO}-YHHYYRILYGEPGCG-NH2; thioether N-14) returned a half-maximal inhibitory concentration (IC50) of over 30000 nM.
In turn, `CC[C@H](C)[C@@H]1NC(=O)[C@H](CCCNC(=N)N)NC(=O)[C@H](Cc2ccc(O)cc2)NC(=O)[C@H](Cc2ccc(O)cc2)NC(=O)[C@H](Cc2c[nH]cn2)NC(=O)[C@H](Cc2c[nH]cn2)NC(=O)[C@H](Cc2ccc(O)cc2)NC(=O)CSC[C@@H](C(=O)NCC(N)=O)NC(=O)CNC(=O)[C@H](CC(C)C)NC(=O)[C@H](C)NC(=O)CNC(=O)[C@H](Cc2ccc(O)cc2)NC(=O)[C@H](CC(C)C)NC1=O` ({CH2CO}-YHHYYRILYGALGCG-NH2; thioether N-14) yielded a 50% inhibitory concentration (IC50) of 180 nM.
`CC[C@H](C)[C@@H]1NC(=O)CNC(=O)[C@H](Cc2ccc(O)cc2)NC(=O)[C@H](Cc2ccc(O)cc2)NC(=O)[C@H](Cc2c[nH]cn2)NC(=O)[C@H](Cc2c[nH]cn2)NC(=O)[C@H](Cc2ccc(O)cc2)NC(=O)CSC[C@@H](C(=O)NCC(N)=O)NC(=O)CNC(=O)[C@H](CC(C)C)NC(=O)[C@H](CCC(=O)O)NC(=O)CNC(=O)[C@H](Cc2ccc(O)cc2)NC(=O)[C@H](CC(C)C)NC1=O` ({CH2CO}-YHHYYGILYGELGCG-NH2; thioether N-14): the IC50 was over 30000 nM.
`CC[C@H](C)[C@@H]1NC(=O)[C@H](Cc2c[nH]cn2)NC(=O)[C@H](Cc2ccc(O)cc2)NC(=O)CSC[C@@H](C(=O)NCC(N)=O)NC(=O)CNC(=O)[C@H](CC(C)C)NC(=O)[C@H](CC(N)=O)NC(=O)CNC(=O)[C@H](Cc2ccc(O)cc2)NC(=O)[C@H](CC(C)C)NC(=O)[C@H](CO)NC(=O)[C@H](C)NC(=O)[C@H](Cc2ccc(O)cc2)NC(=O)[C@H](Cc2ccc(O)cc2)NC1=O` ({CH2CO}-YHIYYASLYGNLGCG-NH2; thioether N-14) displayed an IC50 of 4.4 nM.
Under `CC[C@H](C)[C@@H]1NC(=O)[C@H](Cc2c[nH]cn2)NC(=O)[C@H](Cc2ccc(O)cc2)NC(=O)CSC[C@@H](C(=O)NCC(N)=O)NC(=O)CNC(=O)[C@H](CC(C)C)NC(=O)[C@H](CCCCN)NC(=O)CNC(=O)[C@H](Cc2ccc(O)cc2)NC(=O)[C@H](CC(C)C)NC(=O)[C@H](CO)NC(=O)[C@H](C)NC(=O)[C@H](Cc2ccc(O)cc2)NC(=O)[C@H](Cc2ccc(O)cc2)NC1=O` ({CH2CO}-YHIYYASLYGKLGCG-NH2; thioether N-14) stands 4.2 nM; under `CC[C@H](C)[C@@H]1NC(=O)[C@H](Cc2c[nH]cn2)NC(=O)[C@H](Cc2ccc(O)cc2)NC(=O)CSC[C@@H](C(=O)NCC(N)=O)NC(=O)CNC(=O)[C@H](CC(C)C)NC(=O)[C@H](CC(=O)O)NC(=O)CNC(=O)[C@H](Cc2ccc(O)cc2)NC(=O)[C@H](CC(C)C)NC(=O)[C@H](CO)NC(=O)[C@H](C)NC(=O)[C@H](Cc2ccc(O)cc2)NC(=O)[C@H](Cc2ccc(O)cc2)NC1=O` ({CH2CO}-YHIYYASLYGDLGCG-NH2; thioether N-14), 1.4 nM.
Turning to `CC[C@H](C)[C@@H]1NC(=O)[C@H](CCCNC(=N)N)NC(=O)[C@H](Cc2ccc(O)cc2)NC(=O)[C@H](Cc2ccc(O)cc2)NC(=O)[C@H](CC(C)C)NC(=O)[C@H](Cc2c[nH]cn2)NC(=O)[C@H](Cc2ccc(O)cc2)NC(=O)CSC[C@@H](C(=O)NCC(N)=O)NC(=O)CNC(=O)[C@H](CC(C)C)NC(=O)[C@H](CC(N)=O)NC(=O)CNC(=O)[C@H](Cc2ccc(O)cc2)NC(=O)[C@H](CC(C)C)NC1=O` ({CH2CO}-YHLYYRILYGNLGCG-NH2; thioether N-14), the concentration for half-maximal inhibition (IC50) worked out at 11.3 nM.
For `CC(C)C[C@@H]1NC(=O)[C@H](CO)NC(=O)CNC(=O)[C@H](Cc2ccc(O)cc2)NC(=O)[C@H](CC(C)C)NC(=O)[C@H](CO)NC(=O)[C@H](C(C)C)NC(=O)[C@H](Cc2ccc(O)cc2)NC(=O)[C@H](Cc2ccc(O)cc2)NC(=O)[C@H](CCC(N)=O)NC(=O)[C@H](Cc2c[nH]cn2)NC(=O)[C@H](Cc2ccc(O)cc2)NC(=O)CSC[C@@H](C(=O)NCC(N)=O)NC(=O)CNC1=O` ({CH2CO}-YHQYYVSLYGSLGCG-NH2; thioether N-14), the IC50 stood at 8.1 nM.
Take `CC[C@H](C)[C@@H]1NC(=O)[C@H](CO)NC(=O)[C@H](Cc2ccc(O)cc2)NC(=O)[C@H]([C@@H](C)CC)NC(=O)[C@H]([C@@H](C)O)NC(=O)[C@H](CC(C)C)NC(=O)[C@H](CC(=O)O)NC(=O)[C@H]([C@@H](C)CC)NC(=O)[C@H](C(C)C)NC(=O)[C@H](Cc2ccc(O)cc2)NC(=O)[C@H](CC(=O)O)NC(=O)[C@H](CCCCN)NC(=O)[C@H](Cc2ccc(O)cc2)NC(=O)CSC[C@@H](C(=O)NCC(N)=O)NC1=O` ({CH2CO}-YKDYVIDLTIYSICG-NH2; thioether N-14): the IC50 was over 30000 nM.
With `CC[C@H](C)[C@@H]1NC(=O)[C@H](CCCNC(=N)N)NC(=O)[C@H](Cc2ccc(O)cc2)NC(=O)[C@H](Cc2ccc(O)cc2)NC(=O)[C@H](Cc2c[nH]cn2)NC(=O)[C@H](C)NC(=O)[C@H](Cc2ccc(O)cc2)NC(=O)CSC[C@@H](C(=O)NCC(N)=O)NC(=O)CNC(=O)[C@H](CC(C)C)NC(=O)[C@H](CCC(=O)O)NC(=O)CNC(=O)[C@H](Cc2ccc(O)cc2)NC(=O)[C@H](CC(C)C)NC1=O` ({CH2CO}-YAHYYRILYGELGCG-NH2; thioether N-14), the IC50 was over 30000 nM.
In turn, `CC[C@H](C)[C@@H]1NC(=O)[C@H](CCCNC(=N)N)NC(=O)[C@H](Cc2ccc(O)cc2)NC(=O)[C@H](Cc2ccc(O)cc2)NC(=O)[C@H](Cc2c[nH]cn2)NC(=O)[C@H](CCC(N)=O)NC(=O)[C@H](Cc2ccc(O)cc2)NC(=O)CSC[C@@H](C(=O)NCC(N)=O)NC(=O)CNC(=O)[C@H](CC(C)C)NC(=O)[C@H](CCC(=O)O)NC(=O)CNC(=O)[C@H](Cc2ccc(O)cc2)NC(=O)[C@H](CC(C)C)NC1=O` ({CH2CO}-YQHYYRILYGELGCG-NH2; thioether N-14) came in with an IC50 of over 30000 nM.

The values are drawn from ChEMBL document CHEMBL5360618, “PepScaf: Harnessing Machine Learning with In Vitro Selection toward De Novo Macrocyclic Peptides against IL-17C/IL-17RE Interaction” (J Med Chem, 2023).
